# Experiments:
# Assay type in all cases: in vivo, chicken
# [1] = test system: plasma PK (pyruvate kinase); test: Plasma PK
# Protocol: Chemotherapy was assessed by application of seven different parameters: physical tests of muscular disability, namely the flip test and wing apposition (W.A.) measurements; biochemical assays of serum and muscle enzume levels of creatine phosphokinase (CPK), pyruvate kinase (PK) and acetylcholinesterase (AChE); and histological comparisons of treated and untreated muscle. Toxicity studies (weight loss, etc.) were also used. A very comprehensive profile of the drug was thus obtained which related to all the known, highly characteristic features of the disease which are applicable to both the animal model and the human.
# A massive rise in this enzyme level also occurs in the dystrophic chicken compared to the normal control, as it does in the human disease.
# The drug was administered daily in water, injected intra-peritoneally, the amount being adjusted on a weekly basis according to the animal's weight.
# Finally, oral therapy with IAPP was undertaken at gradually increasing dosages up to 1 g/Kg/day. The parameters (physical, biochemical and histological) measured previously were again used to test the efficacy of the drug; five different dosages were used orally, each being given for 30-60 days, daily (Tables VII-XI). A total of 75 animals were treated in the current study with IAPP and 70 control animals were used.
# [2] = test system: pectoral muscle fibre of dystrophic chickens; test: Histopathology of pectoral muscle; conditions: for % Fibre Splitting / % Phagocytosis / Hypertrophy Factor / Mean Endomysial Area / Nuclei/Fibre / Peripheral Nuclei (% of Total) / Range (endomysial area) / Variability Coefficient: 30 days
# Text: Muscle fibre area increase greatly in the dystrophic chicken as does the range of fibre area sizes. Nuclei become displaced peripherally and both features can be measured quantitatively and compared with normal controls.
# The main difference between 4-week (FIG. 1A) and 7-week old (FIG. 2A) normal muscle from pectoral biopsies, at the light microscopic level, is with regard to myofibre growth. There is an increase in fibre area and a redistribution of the position and number of muscle nuclei. The latter change from a random distribution in the fibre in the 4-week bird to a central location in the 7-week bird of about 80% of the nuclei. The fibres are closely packed, with very little connective tissue present and every fibre is clearly polygonal in shape.
# In contrast, dystrophic pectoral muscle has very few fibres which appear normal at 4 weeks of age. They are nearly all rounded in shape (as opposed to polygonal) and many are hypertrophic. Longitudinal fibre splitting occurs and the muscle nuclei lie preferentially against the sarcolemma (FIG. 1B). There is a large increase in perimysial connective tissue. By 7 weeks, massive hypertrophy occurs (FIG. 2B). Fibre splitting leads to hyperplasia. […] Pyknotic nuclei appear, and the muscle nuclei are randomly scattered throughout the fibre. Connective tissue often appears very dense. Some fibres are starting to atrophy and fatty tissue replacement can sometimes be seen at this stage.
# dystrophic chickens 413 = test: Experiment 4, weight of dystrophic chickens injected with IAPP; conditions: for Weight: 50 mg/Kg
# Protocol: All chickens were injected with 50 mg/Kg IAPP and weighed approximately every second or third day.
# A: Control-injected with PBS
# B, C, D: Experimental-injected with 50 mg/Kg IAPP
# [3] = 200 mg/Kg i.p. daily for 30 days, day 28 ex ovo
# [4] = 200 mg/Kg i.p. daily for 30 days, day 56 ex ovo
# [5] = 200 mg/Kg i.p. daily for 30 days, day 84 ex ovo
# [6] = 300 mg/Kg i.p. daily for 30 days, day 28 ex ovo
# [7] = 300 mg/Kg i.p. daily for 30 days, day 56 ex ovo
# [8] = 300 mg/Kg i.p. daily for 30 days, day 84 ex ovo
# [9] = 300 mg/Kg i.p. three times weekly for 30 days, day 84 ex ovo
# [10] = Table VII, oral 200 mg/Kg, 60 days, day 28 ex ovo
# [11] = Table VII, oral 200 mg/Kg, 60 days, day 35 ex ovo
# [12] = oral 300 mg/Kg daily, day 28 ex ovo
# [13] = oral 300 mg/Kg daily, day 35 ex ovo
# [14] = oral 450 mg/Kg daily for 45 days, day 35 ex ovo
# [15] = oral 450 mg/Kg daily for 45 days, day 50 ex ovo
# [16] = oral 600 mg/Kg daily, day 35 ex ovo
# [17] = oral 600 mg/Kg daily, day 50 ex ovo
# [18] = oral 1 g/Kg daily, day 28 ex ovo
# [19] = oral 1 g/Kg daily, day 35 ex ovo
structure (smiles),measurement,setting,value
"CC(C)Nc1ncccn1.O=P(O)(O)O [IAPP, 2-isopropylaminopyrimidine orthophosphate]",PK,[1]; [3],377
same,"PK, % change from control",[1]; [3],-47%
same,PK,[1]; [4],1612
same,"PK, % change from control",[1]; [4],-45%
same,PK,[1]; [5],2949
same,"PK, % change from control",[1]; [5],-36%
same,PK,[1]; [6],429
same,"PK, % change from control",[1]; [6],-40%
same,PK,[1]; [7],2447
same,"PK, % change from control",[1]; [7],-16%
same,PK,[1]; [8],5282
same,"PK, % change from control",[1]; [8],+15%
same,"PK, % change from control","[1]; 300 mg/Kg i.p. three times weekly for 30 days, day 28 ex ovo",-30%
same,PK,"[1]; 300 mg/Kg i.p. three times weekly for 30 days, day 56 ex ovo",2486
same,PK,[1]; [9],3766
same,"PK, % change from control",[1]; [9],-18%
same,% PK Change vs untreated dystrophic controls,"[1]; Exp. 2, 40 mg/Kg i.p. daily, day 14-20",-38%
same,% PK Change vs untreated dystrophic controls,"[1]; Exp. 2, 40 mg/Kg i.p. daily, day 21-27",-57%
same,% PK Change vs untreated dystrophic controls,"[1]; Exp. 2, 40 mg/Kg i.p. daily, day 28-34",-60%
same,% PK Change vs untreated dystrophic controls,"[1]; Exp. 2, 40 mg/Kg i.p. daily, day 35-41",-48%
same,% PK Change vs untreated dystrophic controls,"[1]; Exp. 2, 40 mg/Kg i.p. daily, day 42-48",-58%
same,% PK Change vs untreated dystrophic controls,"[1]; Exp. 2, 40 mg/Kg i.p. daily, day 56-62",-42%
same,% PK Change vs untreated dystrophic controls,"[1]; Exp. 2, 40 mg/Kg i.p. daily, day 63-71",-41%
same,% PK Change vs untreated dystrophic controls,"[1]; Exp. 3, 70 mg/Kg i.p. daily, day 21-27",-32%
same,% PK Change vs untreated dystrophic controls,"[1]; Exp. 3, 70 mg/Kg i.p. daily, day 28-34",-65%
same,PK,[1]; [10],1925
same,"PK, % change from control",[1]; [10],-4%
same,PK,[1]; [11],2150
same,"PK, % change from control",[1]; [11],+6%
same,PK,[1]; [12],2010
same,"PK, % change from control",[1]; [12],+1%
same,PK,[1]; [13],907
same,"PK, % change from control",[1]; [13],+28%
same,PK,[1]; [14],2520
same,"PK, % change from control",[1]; [14],+0.6%
same,PK,[1]; [15],3891
same,"PK, % change from control",[1]; [15],+7%
same,PK,[1]; [16],1639
same,"PK, % change from control",[1]; [16],-36%
same,PK,[1]; [17],2824
same,"PK, % change from control",[1]; [17],-22%
same,PK,[1]; [18],1080
same,"PK, % change from control",[1]; [18],-48%
same,PK,[1]; [19],1812
same,"PK, % change from control",[1]; [19],-50%
same,% Fibre Splitting,[2]; 150 mg,3.0%
same,% Phagocytosis,[2]; 150 mg,0.0%
same,Hypertrophy Factor,[2]; 150 mg,125
same,Mean Endomysial Area,[2]; 150 mg,1025 μm^2
same,Nuclei/Fibre,[2]; 150 mg,2.5
same,Peripheral Nuclei (% of Total),[2]; 150 mg,46.1 % of Total
same,Range (endomysial area),[2]; 150 mg,82-2001 μm^2
same,Variability Coefficient,[2]; 150 mg,416
same,Fibres still polygonal,"[2]; 150 mg/Kg daily, 7 week old biopsy",50%
same,% Fibre Splitting,[2]; 200 mg,8.4%
same,% Phagocytosis,[2]; 200 mg,1.6%
same,Hypertrophy Factor,[2]; 200 mg,460
same,Mean Endomysial Area,[2]; 200 mg,763 μm^2
same,Nuclei/Fibre,[2]; 200 mg,2.5
same,Peripheral Nuclei (% of Total),[2]; 200 mg,59.1 % of Total
same,Range (endomysial area),[2]; 200 mg,54-2554 μm^2
same,Variability Coefficient,[2]; 200 mg,709
same,% Fibre Splitting,[2]; 300 mg (3× wk.),3.0%
same,% Phagocytosis,[2]; 300 mg (3× wk.),0.0%
same,Hypertrophy Factor,[2]; 300 mg (3× wk.),10
same,Mean Endomysial Area,[2]; 300 mg (3× wk.),449 μm^2
same,Nuclei/Fibre,[2]; 300 mg (3× wk.),1.3
same,Peripheral Nuclei (% of Total),[2]; 300 mg (3× wk.),40.9 % of Total
same,Range (endomysial area),[2]; 300 mg (3× wk.),51-1060 μm^2
same,Variability Coefficient,[2]; 300 mg (3× wk.),518
same,% Fibre Splitting,[2]; 300 mg,10.3%
same,% Phagocytosis,[2]; 300 mg,0.3%
same,Hypertrophy Factor,[2]; 300 mg,100
same,Mean Endomysial Area,[2]; 300 mg,552 μm^2
same,Nuclei/Fibre,[2]; 300 mg,1.7
same,Peripheral Nuclei (% of Total),[2]; 300 mg,42.1 % of Total
same,Range (endomysial area),[2]; 300 mg,24-1226 μm^2
same,Variability Coefficient,[2]; 300 mg,580
same,Muscle appearance vs normal muscle,[2]; 300 mg/Kg 3 times/week at 30 days,indistinguishable from normal muscle
same,Dosage at which histological parameters most closely approximate normal values,[2]; i.p.,300 mg/Kg
same,Muscle morphology,[2]; oral 1 g/Kg daily for 35 days,marked improvements in the muscle morphology
same,Toxic side effect,"dystrophic chickens 413; Exp. 4, 50 mg/Kg injected, normal and dystrophic chickens",There did not appear to be a toxic side effect
same,Weight,"dystrophic chickens 413; Exp. 4, 413B, day 1",48.3 GRAMS
same,Weight,"dystrophic chickens 413; Exp. 4, 413B, day 4",51.2 GRAMS
same,Weight,"dystrophic chickens 413; Exp. 4, 413B, day 7",56.7 GRAMS
same,Weight,"dystrophic chickens 413; Exp. 4, 413B, day 9",58.1 GRAMS
same,Weight,"dystrophic chickens 413; Exp. 4, 413C, day 1",36.9 GRAMS
same,Weight,"dystrophic chickens 413; Exp. 4, 413C, day 4",44.4 GRAMS
same,Weight,"dystrophic chickens 413; Exp. 4, 413C, day 7",49.9 GRAMS
same,Weight,"dystrophic chickens 413; Exp. 4, 413C, day 9",45.2 GRAMS
same,Weight,"dystrophic chickens 413; Exp. 4, 413C, day 11",53.2 GRAMS
same,Weight,"dystrophic chickens 413; Exp. 4, 413C, day 14",77.4 GRAMS
same,Weight,"dystrophic chickens 413; Exp. 4, 413C, day 16",90.5 GRAMS
same,Weight,"dystrophic chickens 413; Exp. 4, 413C, day 17",104.8 GRAMS
same,Weight,"dystrophic chickens 413; Exp. 4, 413D, day 1",44.5 GRAMS
same,Weight,"dystrophic chickens 413; Exp. 4, 413D, day 4",51.2 GRAMS
same,Weight,"dystrophic chickens 413; Exp. 4, 413D, day 7",59.8 GRAMS
same,Weight,"dystrophic chickens 413; Exp. 4, 413D, day 9",56.5 GRAMS
same,Weight,"dystrophic chickens 413; Exp. 4, 413D, day 11",65.4 GRAMS
same,Weight,"dystrophic chickens 413; Exp. 4, 413D, day 14",93.7 GRAMS
same,Weight,"dystrophic chickens 413; Exp. 4, 413D, day 16",115.1 GRAMS
same,Weight,"dystrophic chickens 413; Exp. 4, 413D, day 20",161.3 GRAMS
same,Weight,"dystrophic chickens 413; Exp. 4, 413D, day 22",210.2 GRAMS
same,Weight,"dystrophic chickens 413; Exp. 4, 413D, day 25",240.7 GRAMS

# — patent publication US4416885A, “Use of isopropylaminopyrimidine in the chemotherapy of muscular dystrophy, myopathy and myotonia” (priority 1982, dated 1983)
